Assay results reported in patent US9169285B2, “Methods for purifying steviol glycosides and uses of the same” (The Coca-Cola Company, priority 2011, dated 2015).
“Also recorded” adds a separate entry of the source. Blank lines part the entries; values can stand above or below the compound they belong to.

How the values were obtained:
[1] = system: panelists; assay: Sensory properties of steviol glycosides in acidified water (pH 3.0) at 500 mg/L, 20 panelists; assay type: in vivo, human; conditions: for Overall evaluation: Satisfactory, number of panelists / Quality of sweet taste (comment) / Quality of sweet taste: number of panelists giving the comment / Astringent taste: number of panelists detected the attribute / Bitter taste: number of panelists detected the attribute / Licorice taste: number of panelists detected the attribute / Sweet Aftertaste: number of panelists detected the attribute: 500 ppm (sucrose 10,000 ppm); for Astringent taste: number of panelists detected the attribute / Bitter taste: number of panelists detected the attribute / Licorice taste: number of panelists detected the attribute / Sweet Aftertaste: number of panelists detected the attribute: acidified water pH 3.0 by phosphoric acid, 20 panelists
Description: The sensory properties of Reb X were evaluated in acidified water (pH 3.0 by phosphoric acid) at 500 mg/L concentration by 20 panelists.

[2] = system: one experienced panelist; assay: Taste evaluation of Reb X against Reb A and Reb D, controlled multi-sip and swallow taste method; assay type: in vivo, human; conditions: for Taste Properties: 500 ppm in citric buffer (pH 3.22)
Description: The taste properties of a sample of Reb X were studied against Rebaudioside A (Reb A) and Rebaudioside D (Reb D) samples. Reb A was obtained from Cargill (lot #1040) and Reb-D was obtained from PureCircle (lot #Nov. 3, 2008).
The samples were prepared at 500 ppm for sweetness evaluation by adding moisture compensated mass into a 100 mL sample of carbon-treated water and citric buffer solutions.
(§1) Citric buffer was prepared by mixing 1.171 g/L citric acid, 0.275 g/L sodium citrate and 0.185 g/L sodium benzoate with carbon-treated water, with a final pH of 3.22. The mixtures were moderately stirred at room temperature. The Reb X sample was then evaluated against the two control Reb A and Reb D samples in water and citric buffer at room temperature (RT) and at 4° C. in an ice bath by one experienced panelist for any tasting quality determinations using the controlled, multi-sip and swallow taste method shown below:
1. Take first sip (˜1.8 mL) of control and swallow. Wait for 15-25 sec, then take second sip of control and wait for 15-25 sec.
2. Take first sip of the experimental sample, wait for 15-25 sec, then take second sip. Compare to second sip of control.
3. Repeat steps #1 and #2 for the third and fourth sips of the control and experimental samples to confirm the initial finding.

[3] = Solubility studies of Reb X in carbon-treated water and citrate buffer; assay type: physicochemical
Description: as §1
The samples used to evaluate the taste properties in Example 2 were also used for solubility studies.

[4] = system: one experienced taster; assay: Isosweetness determination of Reb X in citric buffer against sucrose controls; assay type: in vivo, human
Description: (§2) The isosweetness levels of Reb X in a citric buffer system at room temperature and 4° C. were evaluated. A 600 ppm stock solution of Reb X was prepared by adding a mass of 0.15 g into a 250 mL sample of citric buffer (CB) solution. The mixture was moderately stirred at warmer temperature (up to ca. 52° C.) on a heated stirrer for about 15-20 minutes and then cooled. The citric buffer was prepared by adding 1.6 g citric acid, 0.6 g potassium citrate and 0.253 g sodium benzoate in 1 L of carbon-treated water. The pH of the mixture was 3.1. Seven diluted Reb X solutions at […], 25, 50, 100, 200, 300, 400 and 500 ppm were prepared by adding a 2.08, 4.17, 8.33, 16.67, 25.00, 33.33 and 41.67 mL Reb X stock solution, respectively, into each 50 mL solution of CB. The controls of 0.75%, 2%, 4%, 6%, 8%, 10% and 15% sucrose equivalence (SE) were also prepared by adding sugar (w/v) into the CB. The mixtures were moderately stirred and then ready for the isosweetness determination test. The Reb X samples were then evaluated against the control sugar samples in citric buffer at room temperature (RT) and 4° C. (in an ice bath) by one experienced taster for an isosweetness determination using the controlled, multi-sip and swallow taste method.

[5] = Taste comparison of Reb X and Reb A in beverage formulations; assay type: in vivo
[6] = system: panel of trained tasters; assay: Reb X sweetness vs. concentration, matched to sucrose reference solutions; assay type: in vivo, human; conditions: Sweetness Equivalent (SE) 2.5%; Reb X 98% purity; water, room temperature
Description: 2.5%, 5.0%, 7.5%, and 10.0% sucrose solutions were prepared in neutral (7.0 pH) and acidified water (3.2 pH) as reference samples. Solutions containing Reb X (98% purity) were prepared to match the sweetness of each sucrose reference in neutral and acidified water. Samples were tasted and verified by a panel of trained tasters in water at room temperature.

[7] = system: semi-trained panel members; assay: Sensory comparison of Reb X and Reb A, iso-sweet samples of 8% sucrose equivalent sweetness; assay type: in vivo, human
Description: To compare the sensory attributes between Reb X and Reb A, iso-sweet samples having 8% sucrose equivalent sweetness were made with filtered water as shown in Table 8. An 8% sugar solution in water at room temperature was used as a control. An 8% sugar solution in the acidified solution was used as the control. The samples prepared with filtered water were evaluated by 34 semi-trained panel members at room temperature. The samples prepared with acidified water were evaluated by 23 semi-trained panel members at room temperature. Samples were given to the panel members sequentially and coded with triple digit numbers. The order of sample presentation was randomized to avoid order of presentation bias. Water and unsalted crackers were provided in order to cleanse the palate. The panel members were asked to rate different attributes including sweetness onset, total sweetness, rounded sweetness, bitterness, acidity, leafy note, licorice, astringency, mouthfeel, mouth coating, sweet lingering, and bitter lingering. Samples were rated on a scale of zero (0) to ten (10), with zero indicating immediate onset, no intensity, watery/low viscosity, or very sharp peak, and ten indicating very delayed onset, high intensity, thick/high viscosity, or very round peak. One-way single factor ANOVA was used to analyze sensory results, where α=0.05.

[8] = Solubility of the Reb X stock solution in citric buffer; assay type: physicochemical; conditions: Reb X 0.06% (w/v) in citric buffer, up to 52° C., ca. 15-20 minutes
Description: as §2

[9] = acidified water pH 3.0, 20 panelists

Compound: C=C1C[C@@]23CC[C@H]4[C@@](C)(CCC[C@@]4(C)C(=O)O[C@@H]4O[C@H](CO)[C@@H](O)[C@H](O)[C@H]4O)[C@@H]2CC[C@]1(O[C@@H]1O[C@H](CO)[C@@H](O)[C@H](O[C@@H]2O[C@H](CO)[C@@H](O)[C@H](O)[C@H]2O)[C@H]1O[C@@H]1O[C@H](CO)[C@@H](O)[C@H](O)[C@H]1O)C3 [Reb A, Rebaudioside A]
Overall evaluation: Satisfactory, number of panelists [1, 9]: (1 of 20)
Quality of sweet taste (comment) [1, 9]: Bitter
Quality of sweet taste: number of panelists giving the comment [1, 9]: (20 of 20)
Astringent taste: number of panelists detected the attribute [1]: 20
Bitter taste: number of panelists detected the attribute [1]: 20
Licorice taste: number of panelists detected the attribute [1]: 20
Sweet Aftertaste: number of panelists detected the attribute [1]: 20
Taste Properties ([2]; 4° C.): more sweet
Taste Properties ([2]; room temperature): Delayed sweetness onset, significant lingering sweet

Compound: C=C1C[C@@]23CC[C@H]4[C@@](C)(CCC[C@@]4(C)C(=O)O[C@@H]4O[C@H](CO)[C@@H](O)[C@H](O)[C@H]4O[C@@H]4O[C@H](CO)[C@@H](O)[C@H](O)[C@H]4O)[C@@H]2CC[C@]1(O[C@@H]1O[C@H](CO)[C@@H](O)[C@H](O[C@@H]2O[C@H](CO)[C@@H](O)[C@H](O)[C@H]2O)[C@H]1O[C@@H]1O[C@H](CO)[C@@H](O)[C@H](O)[C@H]1O)C3 [Reb D, Rebaudioside D]
Overall evaluation: Satisfactory, number of panelists [1, 9]: (11 of 20)
Quality of sweet taste (comment) [1, 9]: Clean
Quality of sweet taste: number of panelists giving the comment [1, 9]: 9 of 20
Astringent taste: number of panelists detected the attribute [1]: 3
Bitter taste: number of panelists detected the attribute [1]: 3
Licorice taste: number of panelists detected the attribute [1]: 2
Sweet Aftertaste: number of panelists detected the attribute [1]: 5
Taste Properties ([2]; 4° C.): more sweet

Estimated time to solubilize ([3]; Reb X 0.01% in carbon-treated water): 15 min
Estimated time to solubilize ([3]; Reb X 0.01% in citrate buffer): 25 min
Estimated time to solubilize ([3]; Reb X 0.02% in carbon-treated water): 25 min
Estimated time to solubilize ([3]; Reb X 0.02% in citrate buffer): 25 min
Estimated time to solubilize ([3]; Reb X 0.04% in carbon-treated water): 33 min
Estimated time to solubilize ([3]; Reb X 0.04% in citrate buffer): 35 min
Estimated time to solubilize ([3]; Reb X 0.05% in carbon-treated water): 39 min
Estimated time to solubilize ([3]; Reb X 0.05% in citrate buffer): 42 min
Estimated time to solubilize ([3]; Reb X 0.075% in carbon-treated water): 55 min
Estimated time to solubilize ([3]; Reb X 0.075% in citrate buffer): 55 min
Estimated time to solubilize ([3]; Reb X 0.10% in carbon-treated water): 106 min
Estimated time to solubilize ([3]; Reb X 0.10% in citrate buffer): 106 min
Estimated time to solubilize ([3]; Reb X 0.15% in carbon-treated water): Insoluble after 20 hours
Estimated time to solubilize ([3]; Reb X 0.15% in citrate buffer): Insoluble after 20 hours
Solubility and appearance [8]: very soluble and clear (colorless)
Compound: C=C1C[C@@]23CCC4[C@](C)(C(=O)OC5OC(CO)C(O)C(OC6OC(CO)C(O)C(O)C6O)C5OC5OC(CO)C(O)C(O)C5O)CCC[C@@]4(C)[C@@H]2CCC1(OC1OC(CO)C(O)C(OC2OC(CO)C(O)C(O)C2O)C1OC1OC(CO)C(O)C(O)C1O)C3 (stereo partly drawn) [Reb X, 13-[(2-O-β-D-glucopyranosyl-3-O-β-D-glucopyranosyl-β-D-glucopyranosyl)oxy]ent kaur-16-en-19-oic acid-[(2-O-β-D-glucopyranosyl-3-O-β-D-glucopyranosyl-β-D-glucopyranosyl)ester]]
Quality of sweet taste (comment) [1, 9]: Clean
Taste profile compared with known steviol glycosides ([1]; 500 ppm, acidified water pH 3.0, 20 panelists): superior taste profile to already known steviol glycosides
Taste Properties ([2]; room temperature): temporal profile and quality similar to sucrose; also recorded: Clean sweet taste. Broad and full sweetness profile; also recorded: Moderate sweetness linger aftertaste similar to aspartame
Astringency, sweetness depth and bitterness notes ([2]; 500 ppm, citrate buffer system, compared with Reb A): did not have the astringency or sweetness intense (depth) and bitterness notes compared to that of the Reb A
Taste quality compared with Reb A and Reb D ([2]; 500 ppm, citric buffer): much better than Reb A or Reb D
Tasting quality, temporal profile and sweetness linger ([2]; 500 ppm, citric buffer, compared with Reb A): did not display a pure sugar-like tasting quality but rather contained a fatty-like or broader sweet temporal profile and less sweetness linger than that of Reb A
Solubility, initial solubility test ([3]; 500 ppm in citrate buffer, compared with Reb D and Reb A): similar, limited but significantly greater solubility than that of Reb D and significantly less solubility than Reb A
Off-flavors ([4]; Reb X 12.5-600 ppm in citric buffer at 4° C.): No off-flavors at any Reb X concentrations in CB at 4 °C were detected, except at least ca. 300 ppm which noticeably had a longer sweetness lingering
Sweetness intensity difference between RT and 4° C. ([4]; Reb X concentration range, direct comparison with control sucrose at similar temperatures): no significant sweetness intensity difference between RT and 4 °C
Sweetness tasting quality ([4]; all Reb X concentrations (12.5-600 ppm), citric buffer): pleasant sweetness tasting quality with a slight delay of sweetness onset and no bitterness
Taste properties compared with Reb A drink ([5]; flavored zero calorie black tea drink, 250 ppm): much cleaner in finish with less sweetness linger and a more rounded overall sweetness profile
Taste properties compared with Reb A drink ([5]; zero calorie enhanced water drink, 200 ppm): cleaner in finish and had reduced sweetness linger and a more rounded overall sweetness taste quality
Reb X level closest in sweetness level to a 11.5 Brix high fructose corn syrup sweetened orange flavored sparkling beverage ([5]; zero calorie orange-flavored sparkling beverage base): 500 ppm
Taste compared with Reb A-containing formulations ([5]; zero calorie orange-flavored sparkling beverage, Reb X 400 to 750 ppm in 50 ppm increments): tasted significantly better than comparable Reb A-containing formulations
Reb X Concentration matching the sucrose reference [6]: 48 ppm
Sweetness onset, non-sweet taste and bitterness lingering compared with Reb A ([7]; acidified water (250 ppm citric acid, pH 3.2), 23 panel members, FIG. 12): faster sweetness onset, reduced non-sweet taste (bitterness, sour, astringency) and bitterness lingering
Sweetness compared with Reb A ([7]; acidified water (250 ppm citric acid, pH 3.2), Reb X 0.0423% vs Reb A 0.0510%, 23 panel members, FIG. 12): perception of higher sweetness of Reb X over Reb A is significant
Bitterness, astringency and bitter lingering compared with Reb A ([7]; filtered water, Reb X 0.0423% vs Reb A 0.0510%, 34 panel members, scale 0-10, FIG. 11): reduced perception of bitterness, astringency and bitter lingering compared to Reb A

Compound: C=C1C[C@@]23CC[C@H]4[C@@](C)(CCC[C@@]4(C)C(=O)O[C@@H]4O[C@H](CO)[C@@H](O)[C@H](O)[C@H]4O)[C@@H]2CC[C@]1(O[C@@H]1O[C@H](CO)[C@@H](O)[C@H](O)[C@H]1O[C@@H]1O[C@H](CO)[C@@H](O)[C@H](O)[C@H]1O)C3 [Stevioside]
Quality of sweet taste (comment) [1, 9]: Bitter
Quality of sweet taste: number of panelists giving the comment [1, 9]: (20 of 20)

Compound: OC[C@H]1O[C@@](CO)(O[C@H]2O[C@H](CO)[C@@H](O)[C@H](O)[C@H]2O)[C@@H](O)[C@@H]1O [Sucrose]
Overall evaluation: Satisfactory, number of panelists [1, 9]: (20 of 20)
Quality of sweet taste (comment) [1, 9]: Clean
Quality of sweet taste: number of panelists giving the comment [1, 9]: 20 of 20
